# From PubChem BioAssay AID270 (DTP/NCI, 2004)
# Where “and” joins values, the source holds several entries; their conditions need not be identical. Equal values may be shown once. Inconclusive results are not listed.
# System: BDF1 mice, s.c. Lewis lung carcinoma, T/C %
# Experiment: NCI In Vivo Anticancer Drug Screen. Data for tumor model Lewis Lung Carcinoma (subcutaneous) in B6D2F1 (BDF1) mice
# Protocol: The antitumor activity of compounds was measured in mice bearing transplantable tumors. Survival or tumor size were measured and the results are expressed as the measurement made in the treated group (T) divided by the measurement made in the vehicle treated control group (C). The tumor model used in this assay is Lewis Lung Carcinoma (subcutaneous) in B6D2F1 (BDF1) mice
# [1] = endpoint: median survival time, dose: 6.25 mg/kg/injection, schedule: Q01DX009 (ip), vehicle: Klucel (hydroxypropylcellulose) (HPC), higher = longer survival
# [2] = endpoint: median survival time, dose: 12.5 mg/kg/injection, schedule: Q01DX009 (ip), vehicle: Klucel (hydroxypropylcellulose) (HPC), higher = longer survival
# [3] = endpoint: median survival time, dose: 100.0 mg/kg/injection, schedule: Q01DX009 (ip), vehicle: Klucel (hydroxypropylcellulose) (HPC), higher = longer survival
smiles,measurement,setting,value
Nc1ccn(C2OC(CO)C(O)C2O)c(=O)n1 (stereo not drawn),T/C,"endpoint: mean tumor weight, dose: 20.0 mg/kg/injection, schedule: Q01DX011 (ip), vehicle: saline, higher = larger tumour",55 % of control
same,T/C,"endpoint: mean tumor weight, dose: 40.0 mg/kg/injection, schedule: Q01DX011 (ip), vehicle: saline, higher = larger tumour",40 % of control
same,T/C,"endpoint: median survival time, dose: 1.0 mg/kg/injection, schedule: Q01DX011 (adlb), vehicle: water, higher = longer survival",110 % of control
same,T/C,"endpoint: median survival time, dose: 2.0 mg/kg/injection, schedule: Q01DX011 (adlb), vehicle: water, higher = longer survival",100 % of control
same,T/C,"endpoint: median tumor weight (est.), dose: 2.7 mg/kg/injection, schedule: Q03HX032 (ip), vehicle: saline, higher = larger tumour",43 % of control
same,T/C,"endpoint: median tumor weight (est.), dose: 4.0 mg/kg/injection, schedule: Q03HX024 (ip), vehicle: saline, higher = larger tumour",50 % of control
same,T/C,"endpoint: median tumor weight (est.), dose: 4.0 mg/kg/injection, schedule: Q03HX032 (ip), vehicle: saline, higher = larger tumour",36 % of control
same,T/C,"endpoint: median tumor weight (est.), dose: 5.3 mg/kg/injection, schedule: Q03HX016 (ip), vehicle: saline, higher = larger tumour",59 % of control
same,T/C,"endpoint: median tumor weight (est.), dose: 6.0 mg/kg/injection, schedule: Q03HX024 (ip), vehicle: saline, higher = larger tumour",34 % of control
same,T/C,"endpoint: median tumor weight (est.), dose: 8.0 mg/kg/injection, schedule: Q03HX016 (ip), vehicle: saline, higher = larger tumour",67 % of control
same,T/C,"endpoint: median tumor weight (est.), dose: 10.0 mg/kg/injection, schedule: Q03HX008 (ip), vehicle: saline, higher = larger tumour",62 % of control
same,T/C,"endpoint: median tumor weight (est.), dose: 10.0 mg/kg/injection, schedule: Q03HX032 (ip), vehicle: saline, higher = larger tumour",59 % of control
same,T/C,"endpoint: median tumor weight (est.), dose: 12.0 mg/kg/injection, schedule: Q03HX016 (ip), vehicle: saline, higher = larger tumour",32 % of control
same,T/C,"endpoint: median tumor weight (est.), dose: 12.5 mg/kg/injection, schedule: Q01DX009 (ip), vehicle: saline, higher = larger tumour",93 % of control
same,T/C,"endpoint: median tumor weight (est.), dose: 15.0 mg/kg/injection, schedule: Q03HX032 (ip), vehicle: saline, higher = larger tumour",55 % of control
same,T/C,"endpoint: median tumor weight (est.), dose: 16.0 mg/kg/injection, schedule: Q03HX008 (ip), vehicle: saline, higher = larger tumour",57 % of control
same,T/C,"endpoint: median tumor weight (est.), dose: 20.0 mg/kg/injection, schedule: Q01DX015 (ip), vehicle: saline, higher = larger tumour",74 % of control
same,T/C,"endpoint: median tumor weight (est.), dose: 20.0 mg/kg/injection, schedule: Q06HX020 (ip), vehicle: saline, higher = larger tumour",70 % of control
same,T/C,"endpoint: median tumor weight (est.), dose: 20.0 mg/kg/injection, schedule: Q12HX027 (ip), vehicle: saline, higher = larger tumour",62 % of control
same,T/C,"endpoint: median tumor weight (est.), dose: 22.5 mg/kg/injection, schedule: Q03HX032 (ip), vehicle: saline, higher = larger tumour",48 % of control
same,T/C,"endpoint: median tumor weight (est.), dose: 24.0 mg/kg/injection, schedule: Q03HX008 (ip), vehicle: saline, higher = larger tumour",54 % of control
same,T/C,"endpoint: median tumor weight (est.), dose: 25.0 mg/kg/injection, schedule: Q01DX009 (ip), vehicle: saline, higher = larger tumour",100 % of control
same,T/C,"endpoint: median tumor weight (est.), dose: 26.0 mg/kg/injection, schedule: Q01DX011 (ip), vehicle: saline, higher = larger tumour",68 % of control
same,T/C,"endpoint: median tumor weight (est.), dose: 30.0 mg/kg/injection, schedule: Q01DX015 (ip), vehicle: saline, higher = larger tumour",67 % of control
same,T/C,"endpoint: median tumor weight (est.), dose: 30.0 mg/kg/injection, schedule: Q06HX020 (ip), vehicle: saline, higher = larger tumour",45 % of control
same,T/C,"endpoint: median tumor weight (est.), dose: 36.0 mg/kg/injection, schedule: Q03HX008 (ip), vehicle: saline, higher = larger tumour",24 % of control
same,T/C,"endpoint: median tumor weight (est.), dose: 38.0 mg/kg/injection, schedule: Q01DX011 (ip), vehicle: saline, higher = larger tumour",75 % of control
same,T/C,"endpoint: median tumor weight (est.), dose: 45.0 mg/kg/injection, schedule: Q01DX015 (ip), vehicle: saline, higher = larger tumour",73 % of control
same,T/C,"endpoint: median tumor weight (est.), dose: 45.0 mg/kg/injection, schedule: Q06HX020 (ip), vehicle: saline, higher = larger tumour",30 % of control
same,T/C,"endpoint: median tumor weight (est.), dose: 50.0 mg/kg/injection, schedule: Q01DX009 (ip), vehicle: saline, higher = larger tumour",60 % of control
same,T/C,"endpoint: median tumor weight (est.), dose: 150.0 mg/kg/injection, schedule: Q12HX012 (ip), vehicle: saline, higher = larger tumour",5 % of control
same,T/C,"endpoint: median tumor weight (est.), dose: 220.0 mg/kg/injection, schedule: Q12HX012 (ip), vehicle: saline, higher = larger tumour",2 % of control
same,T/C,"endpoint: median tumor weight (est.), dose: 250.0 mg/kg/injection, schedule: Q04DX003 (ip), vehicle: saline, higher = larger tumour",74 % of control
same,T/C,"endpoint: median tumor weight (est.), dose: 1000.0 mg/kg/injection, schedule: Q04DX003 (ip), vehicle: saline, higher = larger tumour",64 % of control
CCOc1ccccc1C1N(Cc2ccc(OC)cc2)CCCN1Cc1ccc(OC)cc1,T/C,"endpoint: mean tumor weight, dose: 74.0 mg/kg/injection, schedule: Q01DX011 (ip), vehicle: other, higher = larger tumour",103 % of control
same,T/C,"endpoint: mean tumor weight, dose: 111.0 mg/kg/injection, schedule: Q01DX011 (ip), vehicle: other, higher = larger tumour",93 % of control
same,T/C,"endpoint: mean tumor weight, dose: 166.0 mg/kg/injection, schedule: Q01DX011 (ip), vehicle: other, higher = larger tumour",93 % of control
Cc1cc(N)c2cc(NC(=O)CCCCCCCCC(=O)Nc3ccc4nc(C)cc(N)c4c3)ccc2n1,T/C,"endpoint: mean tumor weight, dose: 12.5 mg/kg/injection, schedule: Q01DX011 (ip), vehicle: other, higher = larger tumour",108 % of control
same,T/C,"endpoint: mean tumor weight, dose: 50.0 mg/kg/injection, schedule: Q01DX011 (ip), vehicle: other, higher = larger tumour",61 % of control
same,T/C,"endpoint: mean tumor weight, dose: 100.0 mg/kg/injection, schedule: Q01DX011 (ip), vehicle: other, higher = larger tumour",38 % of control
same,T/C,"endpoint: median survival time, dose: 0.05 mg/kg/injection, schedule: Q01DX009 (ip), vehicle: Klucel (hydroxypropylcellulose) (HPC), higher = longer survival",105 % of control
same,T/C,"endpoint: median survival time, dose: 0.1 mg/kg/injection, schedule: Q01DX009 (ip), vehicle: Klucel (hydroxypropylcellulose) (HPC), higher = longer survival",102 % of control
same,T/C,"endpoint: median survival time, dose: 0.19 mg/kg/injection, schedule: Q01DX009 (ip), vehicle: Klucel (hydroxypropylcellulose) (HPC), higher = longer survival",100 % of control
same,T/C,"endpoint: median survival time, dose: 0.38 mg/kg/injection, schedule: Q01DX009 (ip), vehicle: Klucel (hydroxypropylcellulose) (HPC), higher = longer survival",105 % of control
same,T/C,"endpoint: median survival time, dose: 0.75 mg/kg/injection, schedule: Q01DX009 (ip), vehicle: Klucel (hydroxypropylcellulose) (HPC), higher = longer survival",92 % of control
same,T/C,"endpoint: median survival time, dose: 1.5 mg/kg/injection, schedule: Q01DX009 (ip), vehicle: Klucel (hydroxypropylcellulose) (HPC), higher = longer survival",96 % of control
same,T/C,"endpoint: median survival time, dose: 3.0 mg/kg/injection, schedule: Q01DX009 (ip), vehicle: Klucel (hydroxypropylcellulose) (HPC), higher = longer survival",92 % of control
same,T/C,"endpoint: median survival time, dose: 3.12 mg/kg/injection, schedule: Q01DX009 (ip), vehicle: Klucel (hydroxypropylcellulose) (HPC), higher = longer survival",94 % of control
same,T/C,[1],104 % of control
same,T/C,[2],105 % of control
same,T/C,[3],118 % of control
COc1ccc(/C=C/c2ccc3ccccc3[n+]2C)c(OC)c1OC,T/C,"endpoint: median survival time, dose: 0.31 mg/kg/injection, schedule: Q01DX009 (ip), vehicle: Klucel (hydroxypropylcellulose) (HPC), higher = longer survival",117 % of control
same,T/C,"endpoint: median survival time, dose: 0.62 mg/kg/injection, schedule: Q01DX009 (ip), vehicle: Klucel (hydroxypropylcellulose) (HPC), higher = longer survival",108 % of control
same,T/C,"endpoint: median survival time, dose: 1.25 mg/kg/injection, schedule: Q01DX009 (ip), vehicle: Klucel (hydroxypropylcellulose) (HPC), higher = longer survival",107 % of control
same,T/C,"endpoint: median survival time, dose: 2.5 mg/kg/injection, schedule: Q01DX009 (ip), vehicle: Klucel (hydroxypropylcellulose) (HPC), higher = longer survival",89 % of control and 92 % of control
NC(Cc1c[nH]c2ccc(N(CCCl)CCCl)cc12)C(=O)O (stereo not drawn),T/C,"endpoint: mean tumor weight, dose: 0.13 mg/kg/injection, schedule: Q01DX011 (ip), vehicle: saline, higher = larger tumour",90 % of control
same,T/C,"endpoint: mean tumor weight, dose: 0.5 mg/kg/injection, schedule: Q01DX011 (ip), vehicle: saline, higher = larger tumour",90 % of control
same,T/C,"endpoint: mean tumor weight, dose: 1.0 mg/kg/injection, schedule: Q01DX011 (ip), vehicle: saline, higher = larger tumour",98 % of control
same,T/C,"endpoint: mean tumor weight, dose: 2.0 mg/kg/injection, schedule: Q01DX011 (ip), vehicle: saline, higher = larger tumour",102 % of control
C1CC[N-]CC1.C1CC[N-]CC1.C1CC[N-]CC1.[Cl][Rh]([Cl])[Cl],T/C,"endpoint: median survival time, dose: 4.0 mg/kg/injection, schedule: Q01DX009 (ip), vehicle: saline, higher = longer survival",96 % of control
same,T/C,"endpoint: median survival time, dose: 8.0 mg/kg/injection, schedule: Q01DX009 (ip), vehicle: saline, higher = longer survival",93 % of control
same,T/C,"endpoint: median survival time, dose: 16.0 mg/kg/injection, schedule: Q01DX009 (ip), vehicle: saline, higher = longer survival",103 % of control
same,T/C,"endpoint: median survival time, dose: 32.0 mg/kg/injection, schedule: Q01DX009 (ip), vehicle: saline, higher = longer survival",98 % of control
same,T/C,"endpoint: median survival time, dose: 64.0 mg/kg/injection, schedule: Q01DX009 (ip), vehicle: saline, higher = longer survival",92 % of control
COc1ccc2c(c1)CC[C@@H]1[C@@H]2CC[C@]2(C)/C(=N\O)CC[C@@H]12,T/C,"endpoint: mean tumor weight, dose: 50.0 mg/kg/injection, schedule: Q01DX011 (sc), vehicle: steriod suspending solution, higher = larger tumour",43 % of control
same,T/C,"endpoint: mean tumor weight, dose: 115.0 mg/kg/injection, schedule: Q01DX011 (sc), vehicle: steriod suspending solution, higher = larger tumour",53 % of control
same,T/C,"endpoint: mean tumor weight, dose: 170.0 mg/kg/injection, schedule: Q01DX011 (sc), vehicle: steriod suspending solution, higher = larger tumour",45 % of control
same,T/C,"endpoint: mean tumor weight, dose: 200.0 mg/kg/injection, schedule: Q01DX011 (sc), vehicle: steriod suspending solution, higher = larger tumour",53 % of control
same,T/C,"endpoint: mean tumor weight, dose: 250.0 mg/kg/injection, schedule: Q01DX011 (sc), vehicle: steriod suspending solution, higher = larger tumour",36 % of control
same,T/C,"endpoint: mean tumor weight, dose: 375.0 mg/kg/injection, schedule: Q01DX011 (sc), vehicle: steriod suspending solution, higher = larger tumour",43 % of control
same,T/C,"endpoint: mean tumor weight, dose: 400.0 mg/kg/injection, schedule: Q01DX011 (sc), vehicle: steriod suspending solution, higher = larger tumour",50 % of control
same,T/C,"endpoint: mean tumor weight, dose: 600.0 mg/kg/injection, schedule: Q01DX011 (sc), vehicle: steriod suspending solution, higher = larger tumour",24 % of control
O=S(=O)(O)O,T/C,[1],94 % of control and 97 % of control and 121 % of control
same,T/C,[2],88 % of control and 91 % of control and 94 % of control
same,T/C,"endpoint: median survival time, dose: 25.0 mg/kg/injection, schedule: Q01DX009 (ip), vehicle: Klucel (hydroxypropylcellulose) (HPC), higher = longer survival",94 % of control and 102 % of control and 107 % of control
same,T/C,"endpoint: median survival time, dose: 50.0 mg/kg/injection, schedule: Q01DX009 (ip), vehicle: Klucel (hydroxypropylcellulose) (HPC), higher = longer survival",70 % of control and 94 % of control
same,T/C,[3],35 % of control and 42 % of control
same,T/C,"endpoint: median survival time, dose: 200.0 mg/kg/injection, schedule: Q01DX009 (ip), vehicle: Klucel (hydroxypropylcellulose) (HPC), higher = longer survival",30 % of control and 32 % of control
